Source: article PMC8597757, “Pharmacokinetic and Safety Profile of the Novel HIV Nonnucleoside Reverse Transcriptase Inhibitor MK-8507 in Adults without HIV” (Antimicrobial Agents and Chemotherapy, 2021)
“Also recorded” adds a separate entry of the source. Where two headings read alike, the source gives them in different places.

What was measured:
[1] = Multiple-dose (once weekly for 3 weeks) plasma pharmacokinetics of MK-8507 tablet; assay type: in vivo, human; settings: for AUC(0-t) / concentration at 168 h / Cmax / Tmax / half-life: human, plasma, oral; for AUC(0-t): read-out: AUC0–168 (geometric mean [95% CI]); for concentration at 168 h: read-out: C168hr (geometric mean [95% CI]); for Cmax: read-out: Cmax (geometric mean [95% CI])
Procedure: MK-8507 in plasma was extracted by protein precipitation and analyzed by reversed-phase chromatographic separation coupled with tandem mass spectrometric detection by Merck & Co., Inc. (West Point, PA, USA). The liquid chromatography-tandem mass spectrometric (LC-MS/MS) system consisted of a Waters Acquity ultraperformance liquid chromatography system (Waters Corporation, Milford, MA, USA) employing a turbo ionspray interface in the negative ion mode. The lower limit of quantitation was 1.0 ng/mL (2.03 nM) with a linear calibration range from 1.0 to 1000 ng/mL. The mean intrarun accuracy was 94.8 to 113% (precision, ≤6.2% coefficient of variation [CV]), and the mean interrun accuracy was 94.4 to 103.0% (precision, ≤8.6% CV). […] The AUC0-168hr and […] group was not statistically significant at the 0.05 level and was therefore omitted from the final model. An overall slope was estimated across all groups.

[2] = Safety and tolerability in phase 1 studies; assay type: in vivo, human
Procedure: The safety and tolerability of MK-8507 were assessed by clinical evaluation, including vital signs, 12-lead electrocardiograms, laboratory safety tests, and clinical monitoring of AEs.

CYP3A4 = settings: preclinical in vitro studies, no reference given; cited from earlier work
[3] = 100 mg tablet once weekly for 3 weeks, n=6
[4] = 200 mg tablet once weekly for 3 weeks, n=5/6
[5] = 400 mg tablet once weekly for 3 weeks, n=6
[6] = 100 mg, 100 mg tablet once weekly, wk 1, n=6
[7] = 100 mg, 100 mg tablet once weekly, wk 3, n=6
[8] = 200 mg, 200 mg tablet once weekly, wk 1, n=5/6
[9] = 200 mg, 200 mg tablet once weekly, wk 3, n=5
[10] = 400 mg, 400 mg tablet once weekly, wk 1, n=6
[11] = 400 mg, 400 mg tablet once weekly, wk 3, n=6

N#Cc1cc(Cl)cc(Oc2c(C(F)(F)F)ncn(Cc3cc(C(F)(F)F)c(=O)[nH]n3)c2=O)c1 [MK-8507]
GMR (accumulation ratio, wk 3/wk 1 [90% CI]) of AUC0–168 [1, 3]: 1.18 (1.12–1.25) | GMR (accumulation ratio, wk 3/wk 1 [90% CI]) of C168hr [1, 3]: 1.14 (0.87–1.50) | GMR (accumulation ratio, wk 3/wk 1 [90% CI]) of Cmax [1, 3]: 1.12 (0.96–1.30) | GMR (accumulation ratio, wk 3/wk 1 [90% CI]) of AUC0–168 [1, 4]: 1.23 (1.16–1.31) | GMR (accumulation ratio, wk 3/wk 1 [90% CI]) of C168hr [1, 4]: 1.22 (0.90–1.65) | GMR (accumulation ratio, wk 3/wk 1 [90% CI]) of Cmax [1, 4]: 1.15 (0.98–1.36) | GMR (accumulation ratio, wk 3/wk 1 [90% CI]) of AUC0–168 [1, 5]: 1.23 (1.16–1.31) | GMR (accumulation ratio, wk 3/wk 1 [90% CI]) of C168hr [1, 5]: 1.21 (0.92–1.59) | GMR (accumulation ratio, wk 3/wk 1 [90% CI]) of Cmax [1, 5]: 1.06 (0.91–1.23) | accumulation with multiple dosing ([1]; QW over 3 weeks, 100-mg, 200-mg, 400-mg doses): minimal accumulation; also recorded: modest accumulation | accumulation GMR (day 36, day 22), C168hr ([1]; QW over 3 weeks, 100-mg, 200-mg, 400-mg doses, range): 1.14 to 1.22 | AUC(0-t) [1, 6]: 157 µM·h | concentration at 168 h [1, 6]: 320 nM | Cmax [1, 6]: 2940 nM | Tmax ([1]; 100 mg, 100 mg tablet once weekly, wk 1, n=6, read-out: Tmax (median [min, max])): 3 h | concentration at 168 h ([1]; 100 mg, 100 mg tablet once weekly, wk 2, n=6): 390 nM | AUC(0-t) [1, 7]: 185 µM·h | half-life ([1]; 100 mg, 100 mg tablet once weekly, wk 3, n=6, read-out: Apparent terminal t½ (geometric mean [%GVC]) (converted)): 66.7 h | concentration at 168 h [1, 7]: 370 nM | Cmax [1, 7]: 3290 nM | Tmax ([1]; 100 mg, 100 mg tablet once weekly, wk 3, n=6, read-out: Tmax (median [min, max])): 3.03 h | AUC(0-t) [1, 8]: 285 µM·h | concentration at 168 h [1, 8]: 590 nM | Cmax [1, 8]: 4870 nM | Tmax ([1]; 200 mg, 200 mg tablet once weekly, wk 1, n=5/6, read-out: Tmax (median [min, max])): 5 h | concentration at 168 h ([1]; 200 mg, 200 mg tablet once weekly, wk 2, n=5): 700 nM | AUC(0-t) [1, 9]: 352 µM·h | half-life ([1]; 200 mg, 200 mg tablet once weekly, wk 3, n=5, read-out: Apparent terminal t½ (geometric mean [%GVC]) (converted)): 74.2 h | concentration at 168 h [1, 9]: 720 nM | Cmax [1, 9]: 5610 nM | Tmax ([1]; 200 mg, 200 mg tablet once weekly, wk 3, n=5, read-out: Tmax (median [min, max])): 4.01 h | AUC(0-t) [1, 10]: 563 µM·h | concentration at 168 h [1, 10]: 1230 nM | Cmax [1, 10]: 10800 nM | Tmax ([1]; 400 mg, 400 mg tablet once weekly, wk 1, n=6, read-out: Tmax (median [min, max])): 4 h | concentration at 168 h ([1]; 400 mg, 400 mg tablet once weekly, wk 2, n=6): 1110 nM | AUC(0-t) [1, 11]: 694 µM·h | half-life ([1]; 400 mg, 400 mg tablet once weekly, wk 3, n=6, read-out: Apparent terminal t½ (geometric mean [%GVC]) (converted)): 73.1 h | concentration at 168 h [1, 11]: 1490 nM | Cmax [1, 11]: 11500 nM | Tmax ([1]; 400 mg, 400 mg tablet once weekly, wk 3, n=6, read-out: Tmax (median [min, max])): 4 h | half-life ([1]; 400 mg, 100, 200, 400 mg tablet once weekly, range across doses, read-out: geometric mean apparent t1/2): 67 to 74 h | Tmax ([1]; 400 mg, 100, 200, 400 mg tablet once weekly, range across doses, read-out: median time of peak concentration postdose): 3 to 5 h | changes in clinical laboratory assessments, vital signs, electrocardiograms ([2]; both studies): no clinically meaningful changes; also recorded: No clinically meaningful relationships were observed | discontinuation due to an adverse experience ([2]; both studies): no participants discontinued | seriousness and intensity of adverse events ([2]; both studies): nonserious and mild in intensity | tolerability ([2]; single and multiple QW doses): generally well tolerated | participants with cough ([2]; study 1): 3 | participants with headache ([2]; study 1): 4 | participants with myalgia ([2]; study 1): 2 | participants with rhinorrhea ([2]; study 1): 2 | AEs considered related to MK-8507 ([2]; study 1, single dose): none | total nonserious AEs ([2]; study 1, single oral dose of MK-8507): 38 | AEs considered related to MK-8507 ([2]; study 2, multiple doses): none | total nonserious AEs ([2]; study 2, multiple doses of MK-8507): 13 | AEs considered related to MK-8507 ([2]; study 2, single doses (decreased appetite)): One | total nonserious AEs ([2]; study 2, single doses of MK-8507): 10 | induction of CYP3A4 expression in vitro (CYP3A4): demonstrated the potential to induce expression of CYP3A4
